Twelve compounds from patent US9234000B2, “Benzylamine derivatives as inhibitors of plasma kallikrein” (KalVista Pharmaceuticals Limited, priority 2011, dated 2016) can be followed below.

Each structure is given as a SMILES string. In brackets after ≈: the same amount, converted by molar mass. Read-outs that look alike come from different tables or passages of the source.

For orientation: solubility means the dissolved amount per volume that the medium holds. As usually defined, the IC50 is the concentration needed to halve the response being measured.

One series in a line: physchem. The note with it: pH 7, aqueous buffer, kinetic from dmso stock. As for the experimental part: Determination of the Kinetic Solubility in Phosphate Buffer
After shaking for approximately 30 seconds the reduction in light transmission of these samples, at 650 nm, was measured (Molecular Devices Spectromax UV/visible spectrophotometer). A second measurement was taken at approximately 30 seconds later.

Series [1] in a line: Determination of thermodynamic solubility in phosphate buffer. It counts as physicochemical. The note with it: pH 7.4, aqueous buffer, thermodynamic from solid, ammonium phosphate buffer pH7.4, 290 mOsm, 37° C., nominal 1 mg/mL, read-out: Solubility in PO4 buffer. Put shortly:
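Compound at nominal 1 mg/mL in ammonium phosphate buffer (pH7.4, 290 mOsm), shaken 1 h at 37° C., then centrifuged 15,000 g for 10 minutes at 37° C. Supernatant concentration measured by LC-MS/MS against a calibration line from a DMSO stock.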

The target in the next series is Human plasma kallikrein (Homo sapiens (Human), UniProt P03952). Put plainly: Determination of the IC50 for plasma kallikrein. It counts as biochemical. The note with it: 37° C., read-out: IC50 (human PKal). In outline:
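Residual activity (initial rate, absorbance at 410 nm) gave the IC50. Reactions at 37° C combined human plasma kallikrein, substrate H-DPro-Phe-Arg-AFC and a range of inhibitor concentrations.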

A further series addresses Human KLK1 (Homo sapiens (Human), UniProt P06870). Put plainly: Determination of the IC50 for KLK1. It counts as biochemical. The note with it: Human KLK1, 37° C., substrate H-DVal-Leu-Arg-AFC. In outline:
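hKLK1 + H-DVal-Leu-Arg-AFC, 37° C, varied cpd conc. Initial rate by A410 change → residual activity → IC50.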

The target in the next series is thrombin (Homo sapiens (Human), UniProt P00734). Put plainly: Determination of enzyme selectivity: thrombin. It counts as biochemical. The note with it: substrate at Km. The source says:
(§1) Determination of Enzyme Selectivity

In a further series the target is plasmin (Homo sapiens (Human), UniProt P00747). As to the kind of experiment: Determination of enzyme selectivity: plasmin. The note with it: substrate at Km. It counts as biochemical.
Text: as §1

The target in the next series is Factor Xa (Homo sapiens (Human), UniProt P00742). As to the kind of experiment: Determination of enzyme selectivity: Factor Xa. It counts as biochemical. The note with it: substrate at Km.
Text: as §1

For another series, the target named is Factor XIIa (Homo sapiens (Human), UniProt P00748). Put plainly: Determination of enzyme selectivity: Factor XIIa. The conditions noted are these: fluorogenic substrate at Km concentration. It counts as biochemical. As for the experimental part:
as §1
Human serine protease enzymes plasmin, thrombin, trypsin, Factor Xa and Factor XIIa were assayed for enzymatic activity using an appropriate fluorogenic substrate. Protease activity was measured by monitoring the accumulation of liberated fluorescence from the substrate over 5 minutes. The linear rate of fluorescence increase per minute was expressed as percentage (%) activity. The Km for the cleavage of each substrate was determined by standard transformation of the Michaelis-Menten equation.

The subject of a further series is CA-I stimulated RVP. As to the kind of experiment: Carbonic anhydrase I induced retinal vascular permeability model. It counts as in vivo, Sprague Dawley rats. The note with it: rat. The procedure: Carbonic Anhydrase I Induced Retinal Vascular Permeability Model
After 30 mins, a second intravitreal injection (5 μL) of PBS or CA-I (200 ng/eye) was given. After 15 minutes, 10% sodium fluorescein was infused and retinal vascular permeability (RVP) was measured by vitreous fluorophotometry 75 minutes following the initial IVT injections.

The nature of series [2]: Ocular and systemic pharmacokinetics following a single IVT dose. It counts as in vivo, pigmented (Dutch-belted) rabbits. The note with it: rabbit. As for the experimental part: A pharmacokinetic study of Example 3 was performed to assess the ocular and systemic pharmacokinetics following a single IVT dose in pigmented (Dutch-belted) rabbits. […] Serial blood samples were collected in surviving rabbits.
Ocular tissue concentration data are presented in FIG. 2, in which the solid line for each ocular tissue concentration is the average of the left and right eye of each rabbit.

Chain of Factor XIIa (P00748 373-615): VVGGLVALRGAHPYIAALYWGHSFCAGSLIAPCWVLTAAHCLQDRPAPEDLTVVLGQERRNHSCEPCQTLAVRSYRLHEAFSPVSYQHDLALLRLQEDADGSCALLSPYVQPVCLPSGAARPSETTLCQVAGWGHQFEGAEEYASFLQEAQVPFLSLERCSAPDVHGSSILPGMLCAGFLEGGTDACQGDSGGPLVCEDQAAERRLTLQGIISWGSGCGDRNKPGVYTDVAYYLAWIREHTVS
Chain of Human KLK1 (P06870 25-262): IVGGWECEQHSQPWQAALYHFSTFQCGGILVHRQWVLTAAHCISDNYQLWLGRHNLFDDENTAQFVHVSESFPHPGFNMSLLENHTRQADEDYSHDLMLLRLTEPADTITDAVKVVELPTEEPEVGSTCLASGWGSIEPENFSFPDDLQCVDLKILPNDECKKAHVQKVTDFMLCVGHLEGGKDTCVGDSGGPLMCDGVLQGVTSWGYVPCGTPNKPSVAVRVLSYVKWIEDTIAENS
Chain of Human plasma kallikrein (P03952 391-638): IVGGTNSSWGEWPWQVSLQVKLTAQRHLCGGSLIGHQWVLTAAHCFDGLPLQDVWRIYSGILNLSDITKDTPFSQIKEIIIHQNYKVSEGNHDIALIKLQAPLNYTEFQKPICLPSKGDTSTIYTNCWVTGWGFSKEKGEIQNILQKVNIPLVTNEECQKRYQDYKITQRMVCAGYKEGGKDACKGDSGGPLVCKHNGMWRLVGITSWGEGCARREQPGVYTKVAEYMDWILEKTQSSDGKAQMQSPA
Chain of Human plasma kallikrein (P03952 20-390 partner): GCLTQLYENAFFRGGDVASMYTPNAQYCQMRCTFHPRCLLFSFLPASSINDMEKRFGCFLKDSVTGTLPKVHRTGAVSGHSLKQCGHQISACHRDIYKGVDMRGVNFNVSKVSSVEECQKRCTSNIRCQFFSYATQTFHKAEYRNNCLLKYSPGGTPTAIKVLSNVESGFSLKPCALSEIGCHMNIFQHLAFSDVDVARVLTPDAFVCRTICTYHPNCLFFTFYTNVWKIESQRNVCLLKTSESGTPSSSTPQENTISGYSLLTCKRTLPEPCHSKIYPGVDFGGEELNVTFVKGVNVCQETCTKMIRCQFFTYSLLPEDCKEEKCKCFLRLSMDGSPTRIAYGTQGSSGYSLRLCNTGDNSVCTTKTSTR
Chain of plasmin (P00747 whole entry, looked up, change not shown): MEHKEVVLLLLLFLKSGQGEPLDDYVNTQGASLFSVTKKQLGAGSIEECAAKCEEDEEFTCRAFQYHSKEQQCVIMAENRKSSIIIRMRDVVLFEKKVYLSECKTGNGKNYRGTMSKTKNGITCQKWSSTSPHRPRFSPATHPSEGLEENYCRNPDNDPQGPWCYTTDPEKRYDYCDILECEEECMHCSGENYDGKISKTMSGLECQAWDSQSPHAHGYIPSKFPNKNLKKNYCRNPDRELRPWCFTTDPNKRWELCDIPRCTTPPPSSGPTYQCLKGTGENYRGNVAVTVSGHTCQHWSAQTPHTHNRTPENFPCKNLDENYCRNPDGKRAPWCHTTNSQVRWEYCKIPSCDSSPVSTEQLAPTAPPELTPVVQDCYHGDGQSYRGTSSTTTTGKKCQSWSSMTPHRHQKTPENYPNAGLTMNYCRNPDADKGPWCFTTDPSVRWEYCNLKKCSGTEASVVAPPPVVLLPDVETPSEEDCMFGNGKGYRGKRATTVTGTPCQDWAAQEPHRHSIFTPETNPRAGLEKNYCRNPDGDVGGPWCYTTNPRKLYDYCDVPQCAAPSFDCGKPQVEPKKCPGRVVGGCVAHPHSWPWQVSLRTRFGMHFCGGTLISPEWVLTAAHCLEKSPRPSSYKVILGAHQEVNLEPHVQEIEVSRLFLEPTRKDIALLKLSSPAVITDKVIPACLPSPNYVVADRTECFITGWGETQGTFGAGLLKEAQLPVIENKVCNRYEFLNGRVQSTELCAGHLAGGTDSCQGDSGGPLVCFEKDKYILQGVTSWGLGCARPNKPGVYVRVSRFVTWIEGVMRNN
Chain of plasmin (P00747 whole entry partner, looked up): as the sequence (P00747 whole entry, looked up, change not shown) above
Chain of Factor Xa (P00742 235-488): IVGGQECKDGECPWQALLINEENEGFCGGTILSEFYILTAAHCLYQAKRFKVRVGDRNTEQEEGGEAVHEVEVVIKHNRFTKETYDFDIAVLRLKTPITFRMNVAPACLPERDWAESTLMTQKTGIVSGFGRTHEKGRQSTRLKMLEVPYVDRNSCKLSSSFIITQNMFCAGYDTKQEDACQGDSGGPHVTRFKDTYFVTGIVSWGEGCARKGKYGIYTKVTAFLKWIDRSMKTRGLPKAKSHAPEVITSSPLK
Chain of Factor Xa (P00742 41-179 partner): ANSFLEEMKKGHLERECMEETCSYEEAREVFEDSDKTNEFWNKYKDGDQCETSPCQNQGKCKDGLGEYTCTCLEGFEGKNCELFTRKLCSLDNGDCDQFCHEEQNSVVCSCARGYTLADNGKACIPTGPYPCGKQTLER

For `CCOc1ccc(C[C@@H](NC(=O)c2ccccc2)C(=O)N[C@@H](Cc2ccccc2)C(=O)NCc2ccc(CN)cc2)cc1` [Example 3, N—[(R)-1-[(S)-1-(4-Aminomethyl-benzylcarbamoyl)-2-phenyl-ethylcarbamoyl]-2-(4-ethoxy-phenyl)-ethyl]-benzamide], the solubility in the series “physchem” turned out to be 12 µM (≈ 6.94 µg/mL). Further, the solubility at 1 h in series [1] was 10 µg/mL (≈ 17.3 µM). Further, the IC50 on Human plasma kallikrein (fluorogenic substrate H-DPro-Phe-Arg-AFC) was 0.022 µM; on Human KLK1 (Table 12), greater than 10 µM; against thrombin it was greater than 40 µM; against plasmin, 3.5 µM; at Factor Xa, greater than 10 µM; against Factor XIIa it was greater than 10 µM. For the same compound, the “reduction of RVP stimulated by CA-I injection” value in the series with CA-I stimulated RVP (intravitreal injection 1 μM (5 μL), CA-I 200 ng/eye, RVP measured at 75 minutes) is 53±21%. Besides, the “basal RVP” value with CA-I stimulated RVP (intravitreal injection of 1 μM alone (no CA-I), PBS alone 3.64±0.48, no effect) is on record as 3.29±0.21. Also, the “decline in ocular tissue concentrations” value in [2] (IVT 210 ng per eye, vitreous, retina/choroid, aqueous humour, over 7 days) is “minimal”. Further, the “Plasma concentrations following IVT administration” value in series [2] (single bilateral IVT 210 ng per eye, all time points) is “below 1 ng/mL”.
With `CCOc1ccc(C[C@@H](NC(=O)c2ccc(Cl)c(Cl)c2)C(=O)N[C@@H](Cc2ccccc2)C(=O)NCc2ccc(CN)cc2)cc1` [Example 93, N-[(R)-1-[(S)-1-(4-Aminomethyl-benzylcarbamoyl)-2-phenyl-ethylcarbamoyl]-2-(4-ethoxy-phenyl)-ethyl]-3,4-dichloro-benzamide], in series [1], the solubility at 1 h came to 0.01 µg/mL (≈ 0.0154 µM). In addition, the IC50 is 0.175 µM at Human plasma kallikrein (substrate H-DPro-Phe-Arg-AFC), greater than 10 µM on Human KLK1 (Table 13) and greater than 10 µM at Factor XIIa.
On to `CCOc1ccc(C[C@@H](NC(=O)c2ccccc2)C(=O)N[C@H](C(=O)NCc2ccc(CN)cc2)[C@H](O)c2ccccc2)cc1` [Example 197, N-[(R)-1-[(1S,2R)-1-(4-Aminomethyl-benzylcarbamoyl)-2-hydroxy-2-phenyl-ethylcarbamoyl]-2-(4-ethoxy-phenyl)-ethyl]-benzamide], for which the IC50 is 0.012 µM at Human plasma kallikrein (substrate H-DPro-Phe-Arg-AFC), greater than 10 µM at Human KLK1 (Table 13) and greater than 10 µM against Factor XIIa.
`CCOc1ccc(C[C@@H](NC(=O)c2ccccn2)C(=O)N[C@@H](Cc2cccs2)C(=O)NCc2ccc(CN)cc2)cc1` [Example 157, Pyridine-2-carboxylic acid [(R)-1-[(S)-1-(4-aminomethyl-benzylcarbamoyl)-2-thiophen-2-yl-ethylcarbamoyl]-2-(4-ethoxy-phenyl)-ethyl]-amide]: in series [1], the solubility at 1 h worked out at 4.77 µg/mL (≈ 8.14 µM). For the same compound, the values for the IC50 on Human plasma kallikrein (substrate H-DPro-Phe-Arg-AFC), against Human KLK1 (Table 13) and against Factor XIIa were 0.036 µM, greater than 10 µM and greater than 10 µM, respectively.
For `CCOc1ccc(C[C@@H](NC(=O)c2ccc(C)cc2)C(=O)N[C@@H](Cc2cccnc2)C(=O)NCc2ccc(CN)cc2)cc1` [Example 199, N—[(R)-1-[(S)-1-(4-Aminomethyl-benzylcarbamoyl)-2-pyridin-3-yl-ethylcarbamoyl]-2-(4-ethoxy-phenyl)-ethyl]-4-methyl-benzamide], the solubility at 1 h in series [1] came out at 15.9 µg/mL (≈ 26.7 µM). Further, the IC50 on Human plasma kallikrein (substrate H-DPro-Phe-Arg-AFC) is 0.01 µM; on Human KLK1 (Table 13) it was greater than 10 µM; against Factor XIIa it was greater than 10 µM.
Take `CCOc1ccc(C[C@@H](NC(=O)c2sccc2Cl)C(=O)N[C@H](C(=O)NCc2ccc(CN)cc2)[C@H](O)c2ccccc2)cc1` [Example 198, 3-Chloro-thiophene-2-carboxylic acid [(R)-1-[(1S,2R)-1-(4-aminomethyl-benzylcarbamoyl)-2-hydroxy-2-phenyl-ethylcarbamoyl]-2-(4-ethoxy-phenyl)-ethyl]-amide]: the results for the IC50 on Human plasma kallikrein (substrate H-DPro-Phe-Arg-AFC), against Human KLK1 (Table 13) and against Factor XIIa were 0.007 µM, 9.1 µM and greater than 10 µM, respectively.
Regarding `CCOc1ccc(C[C@@H](NC(=O)Cc2ccccc2)C(=O)N[C@@H](Cc2ccccc2)C(=O)NCc2ccc(CN)cc2)cc1` [Example 85, (S)-N-(4-Aminomethyl-benzyl)-2-[(R)-3-(4-ethoxy-phenyl)-2-phenylacetylamino-propionylamino]-3-phenyl-propionamide], the IC50 on Human plasma kallikrein (substrate H-DPro-Phe-Arg-AFC) is 0.485 µM; on Human KLK1 (Table 13) it was 2.9 µM; against Factor XIIa, greater than 10 µM.
For `CCOc1ccc(C[C@@H](NC(=O)C23CC4CC(CC(C4)C2)C3)C(=O)N[C@@H](Cc2ccccc2)C(=O)NCc2ccc(CN)cc2)cc1` [Example 91, Adamantane-1-carboxylic acid [(R)-1-[(S)-1-(4-aminomethyl-benzylcarbamoyl)-2-phenyl-ethylcarbamoyl]-2-(4-ethoxy-phenyl)-ethyl]-amide] the same measures were 2.08 µM, greater than 10 µM and greater than 10 µM.
Take `CCOc1ccc(C[C@@H](NC(=O)c2sccc2N)C(=O)N[C@@H](Cc2cscn2)C(=O)NCc2ccc(CN)cc2)cc1` [Example 187, 3-Amino-thiophene-2-carboxylic acid [(R)-1-[(S)-1-(4-aminomethyl-benzylcarbamoyl)-2-thiazol-4-yl-ethylcarbamoyl]-2-(4-ethoxy-phenyl)-ethyl]-amide]: the IC50 was 0.007 µM at Human plasma kallikrein (substrate H-DPro-Phe-Arg-AFC), greater than 10 µM at Human KLK1 (Table 13) and greater than 10 µM against Factor XIIa.
Consider `CCOc1ccc(C[C@@H](NC(=O)c2sccc2N)C(=O)N[C@@H](Cc2csc3ccccc23)C(=O)NCc2ccc(CN)cc2)cc1` [Example 194, 3-Amino-thiophene-2-carboxylic acid [(R)-1-[(S)-1-(4-aminomethyl-benzylcarbamoyl)-2-benzo[b]thiophen-3-yl-ethylcarbamoyl]-2-(4-ethoxy-phenyl)-ethyl]-amide], for which the results for the IC50 at Human plasma kallikrein (substrate H-DPro-Phe-Arg-AFC), against Human KLK1 (Table 13) and against Factor XIIa were 0.013 µM, 7.1 µM and greater than 10 µM, respectively.
As for `CCOc1ccc(C[C@@H](NC(=O)c2ccccc2)C(=O)N[C@@H](Cc2ccccc2)C(=O)NCc2ccc(CN)c(C)c2)cc1` [Example 182, N-[(R)-1-[(S)-1-(4-Aminomethyl-3-methyl-benzylcarbamoyl)-2-phenyl-ethylcarbamoyl]-2-(4-ethoxy-phenyl)-ethyl]-benzamide], the concentration for half-maximal inhibition (IC50) on Human plasma kallikrein (substrate H-DPro-Phe-Arg-AFC) was 0.015 µM; on Human KLK1 (Table 13), greater than 10 µM; on Factor XIIa, greater than 10 µM.
Consider `CCOc1ccc(C[C@@H](NC(=O)c2ccc(C)cc2)C(=O)N[C@@H](Cc2cscn2)C(=O)NCc2ccc(CN)cc2)cc1` [Example 185, N-[(R)-1-[(S)-1-(4-Aminomethyl-benzylcarbamoyl)-2-thiazol-4-yl-ethylcarbamoyl]-2-(4-ethoxy-phenyl)-ethyl]-4-methyl-benzamide], for which the IC50 is 0.049 µM at Human plasma kallikrein (substrate H-DPro-Phe-Arg-AFC), greater than 10 µM on Human KLK1 (Table 13) and greater than 10 µM on Factor XIIa.
